The values below come from ChEMBL document CHEMBL1201862, “PubChem BioAssay data set” (2004).

Molecules are shown by their SMILES.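 Briefly, cells in 96-well plates were exposed to five compound concentrations for 48 h, and endpoints were estimated by linear interpolation. Here, GI50 denotes the concentration required for 50% inhibition of growth.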 Calls of active or inactive are those of the source. Cut-off read from the data, not from the text of the source: active = GI50 up to about 1.1 µM and inactive = higher.

Among the test systems are M14; IGROV-1; MCF7; NCI-H226; TK-10; A498; SNB-19; DU-145; CAKI-1; U-251; T47D; CCRF-CEM; SW-620; SK-MEL-28; BT-549; NCI-H522; NCI/ADR-RES; RXF 393.
Holding throughout (assay): NCI tumour cell line growth inhibition, 48 h

As for `Cc1ccc(/C=N/n2c(=O)[nH]c3ccccc3c2=O)cc1`, the GI50 in the assay with M14, with IGROV-1, in the assay with MCF7, with NCI-H226, in the assay with TK-10 and in the assay on A498 was > 100 µM (inactive) in each case. For the same compound, the GI50 in the assay with SNB-19, in the assay on DU-145, in the assay on CAKI-1, in the assay with U-251, in the assay on T47D and with CCRF-CEM was > 100 µM (inactive) in each case. Also, the GI50 in the assay on SW-620, with SK-MEL-28 and in the assay on BT-549 was > 100 µM (inactive) in each case.

Take `Cc1c(C)c2c(c(N)c1C#N)C(=O)N(NC(=S)Nc1ccccc1)C2=O`: the GI50 was > 100 µM (inactive) in the assay on M14; 56.5 µM (inactive) in the assay on IGROV-1; > 100 µM (inactive) with MCF7; 42.8 µM (inactive) in the assay on NCI-H226; > 100 µM (inactive) with TK-10; 56.6 µM (inactive) in the assay with SNB-19. For the same compound, the GI50 in the assay with NCI-H522 was 52.7 µM (inactive); in the assay with DU-145 it was > 100 µM (inactive); in the assay with CAKI-1, 18.2 µM (inactive); in the assay on NCI/ADR-RES it was 71.3 µM (inactive); in the assay with U-251, > 100 µM (inactive); with T47D, > 100 µM (inactive). Besides, the GI50 in the assay on RXF 393 was 46 µM (inactive); in the assay on CCRF-CEM, 62.5 µM (inactive); in the assay on SW-620, 57.5 µM (inactive); in the assay with SK-MEL-28 it was > 100 µM (inactive); in the assay with BT-549 it was > 100 µM (inactive).

For `Fc1ccc(Nc2nc(Cl)c3nc[nH]c3n2)cc1Cl`, the GI50 with M14 was > 100 µM (inactive); in the assay with IGROV-1, 84.9 µM (inactive); with MCF7, 98.9 µM (inactive); in the assay on NCI-H226 it was > 100 µM (inactive); with TK-10 it was > 100 µM (inactive); in the assay with A498, > 100 µM (inactive). For the same compound, the GI50 with SNB-19 was > 100 µM (inactive); in the assay with NCI-H522 it was 43.5 µM (inactive); in the assay on DU-145, 87.3 µM (inactive); in the assay on CAKI-1, 6.97 µM (inactive); with NCI/ADR-RES it was 37.8 µM (inactive); with U-251, 74.6 µM (inactive). The GI50 with T47D is 38.5 µM (inactive); in the assay with CCRF-CEM, > 100 µM (inactive); with SW-620, > 100 µM (inactive); in the assay on SK-MEL-28, > 100 µM (inactive); in the assay with BT-549, > 100 µM (inactive).

As for `CCOC(=O)c1c(N2CCCC2)ncn(-c2ccccc2)c1=S`, the GI50 in the assay with M14, with IGROV-1, in the assay on NCI-H226, in the assay on TK-10, in the assay on A498 and in the assay with SNB-19 was > 100 µM (inactive) in each case. Moreover, the GI50 in the assay with NCI-H522, in the assay on DU-145, in the assay with NCI/ADR-RES, in the assay on U-251, in the assay on T47D and in the assay with RXF 393 was > 100 µM (inactive) throughout. The GI50 in the assay with CCRF-CEM, in the assay on SW-620, in the assay with SK-MEL-28 and in the assay on BT-549 was > 100 µM (inactive) throughout.

In the case of `CCOC(=O)Oc1ccc2c(c1)c(=O)c1c(NCCN(CC)CC)ccc3nnn2c31`, the GI50 was 5.2 µM (inactive) with M14; 0.519 µM (active) in the assay on IGROV-1; 0.392 µM (active) in the assay with MCF7; 0.711 µM (active) in the assay on NCI-H226; 3.19 µM (inactive) in the assay on TK-10; 6.52 µM (inactive) in the assay on A498. Also, the GI50 with SNB-19 is 1.21 µM (inactive); in the assay on NCI-H522 it was 0.69 µM (active); in the assay with DU-145, 1.89 µM (inactive); in the assay with NCI/ADR-RES it was 2.39 µM (inactive); with U-251, 1.73 µM (inactive); with T47D, 14.8 µM (inactive). The GI50 with RXF 393 is 6.08 µM (inactive); in the assay with CCRF-CEM, 0.172 µM (active); with SW-620, 0.438 µM (active); with SK-MEL-28, 11.7 µM (inactive); in the assay with BT-549, 10.5 µM (inactive).

In the case of `CCCCCCCCCCCCOCCCCCCCCC/C=C/c1ccc2c(c1)OCCOCCOCCOCCO2`, the GI50 was 25.4 µM (inactive) with M14; 21.3 µM (inactive) in the assay with IGROV-1; 16.3 µM (inactive) in the assay on MCF7; 17.8 µM (inactive) in the assay on NCI-H226; 19.6 µM (inactive) in the assay with TK-10; 33.3 µM (inactive) in the assay on SNB-19. Besides, the GI50 in the assay on NCI-H522 was 13.2 µM (inactive); with DU-145, 33 µM (inactive); with CAKI-1 it was 17.3 µM (inactive); in the assay with NCI/ADR-RES, 17.5 µM (inactive); in the assay on U-251 it was 22.8 µM (inactive); in the assay with T47D, 24.9 µM (inactive). Besides, the GI50 in the assay with RXF 393 was 19.2 µM (inactive); with CCRF-CEM, 39.5 µM (inactive); in the assay with SW-620, 30.3 µM (inactive); with SK-MEL-28, 30.7 µM (inactive); in the assay on BT-549, 23.4 µM (inactive).

As to `COc1ccc(Cc2nc3cc(Cl)ccc3o2)cc1`, the GI50 with M14 was 32.2 µM (inactive); with IGROV-1, 63 µM (inactive); in the assay on MCF7 it was 27.9 µM (inactive); with NCI-H226, 21.5 µM (inactive); in the assay on TK-10, 35.7 µM (inactive); in the assay on SNB-19, 42.2 µM (inactive). The GI50 in the assay with NCI-H522 was 21.2 µM (inactive); in the assay on DU-145, 38.8 µM (inactive); in the assay with CAKI-1 it was 31 µM (inactive); with NCI/ADR-RES it was 24.2 µM (inactive); in the assay with U-251 it was 27.1 µM (inactive); in the assay on T47D it was 21.3 µM (inactive). Further, the GI50 in the assay with RXF 393 is 22.6 µM (inactive); in the assay with CCRF-CEM it was 12.2 µM (inactive); in the assay with SW-620, 35.5 µM (inactive); in the assay on SK-MEL-28, 37.2 µM (inactive); with BT-549, 19.4 µM (inactive).

As for `C[NH+]1[C@@H](Cc2ccccc2)C(=O)O[B-]1(F)c1ccccc1` (some centres not stated), the GI50 with M14, in the assay with IGROV-1, in the assay on MCF7, in the assay on NCI-H226, with TK-10 and in the assay with A498 was > 100 µM (inactive) throughout. Moreover, the GI50 with SNB-19, with DU-145, in the assay with NCI/ADR-RES, in the assay on U-251, in the assay on T47D and in the assay on CCRF-CEM was > 100 µM (inactive) each time. Further, the GI50 in the assay on SW-620, with SK-MEL-28 and in the assay on BT-549 was > 100 µM (inactive) in each case.

Consider `CCN1C[C@]2(C)CC[C@H](OC)C34C5C[C@@H]6[C@@H](OC)C[C@@](OC)(C5[C@H]6OCc5ccccc5)C(C13)[C@H](OC(C)=O)[C@@H]42` (some centres not stated), for which the GI50 with M14 is 97.1 µM (inactive); in the assay on IGROV-1, > 100 µM (inactive); in the assay with MCF7, > 100 µM (inactive); with NCI-H226 it was > 100 µM (inactive); in the assay with TK-10, > 100 µM (inactive); in the assay with A498, > 100 µM (inactive). Further, the GI50 with SNB-19, with DU-145, with NCI/ADR-RES, with U-251, in the assay with T47D and in the assay with RXF 393 was > 100 µM (inactive) each time. Moreover, the GI50 in the assay on CCRF-CEM, in the assay on SW-620, with SK-MEL-28 and with BT-549 was > 100 µM (inactive) in each case.
